Measured values: the NIST ThermoML archive (doi:10.1016/j.jct.2005.02.004)

Conditions: Liquid, Vibrating tube method

CO [methanol]
Conditions	mass density [kg/m3]
298.26 K, 235 kPa	785.98
298.26 K, 5000 kPa	790.69
298.26 K, 9999 kPa	795.4
298.26 K, 15013 kPa	799.88
298.26 K, 19987 kPa	804.1
298.26 K, 25008 kPa	808.17
298.26 K, 29997 kPa	812.04
298.26 K, 34991 kPa	815.76
298.26 K, 39981 kPa	819.34
323.22 K, 270 kPa	762.14
323.22 K, 4990 kPa	767.53
323.22 K, 9984 kPa	772.87
323.22 K, 14982 kPa	777.91
323.22 K, 19989 kPa	782.69
323.22 K, 24986 kPa	787.21
323.22 K, 29995 kPa	791.53
323.22 K, 34987 kPa	795.64
323.22 K, 39993 kPa	799.6
348.25 K, 366 kPa	737.29
348.25 K, 4987 kPa	743.46
348.25 K, 9986 kPa	749.65
348.25 K, 14991 kPa	755.42
348.25 K, 20004 kPa	760.84
348.25 K, 25020 kPa	765.94
348.25 K, 30013 kPa	770.76
348.25 K, 34989 kPa	775.32
348.25 K, 40000 kPa	779.7
373.26 K, 534 kPa	710.55
373.26 K, 4983 kPa	717.67
373.26 K, 9990 kPa	724.99
373.26 K, 14998 kPa	731.69
373.26 K, 19985 kPa	737.88
373.26 K, 24994 kPa	743.68
373.26 K, 29997 kPa	749.13
373.26 K, 35001 kPa	754.27
373.26 K, 39996 kPa	759.14
398.28 K, 934 kPa	680.93
398.28 K, 4984 kPa	689
398.28 K, 9998 kPa	697.91
398.28 K, 14986 kPa	705.88
398.28 K, 19987 kPa	713.16
398.28 K, 24992 kPa	719.87
398.28 K, 29991 kPa	726.11
398.28 K, 35005 kPa	731.99
398.28 K, 40004 kPa	737.47
